Results taken from US6190664A, “Depigmenting cosmetic skin-care composition and use thereof” (C 3 D, priority 1995, dated 2001).

Test system: Tyrosinase
Assay: In vitro inhibition of tyrosinase (Dopachrome at 475 nm, substrate L-Dopa)
Type: biochemical
Conditions: for % of activity: controls = 100%
Description: The following test then allows to measure the inhibition of tyrosinase while dosing Dopachrome which is a coloured compound which may spectroscopically be dosed 475 nm.
In order to study the influence of some compounds on the enzymatic activity of tyrosinase, the enzymatic kinetics are achieved.
The reaction is performed at 25° C. in phosphate buffer pH7. Tyrosinase is brought together with its substrate L-Dopa. In the reaction medium it may be added the molecule to be studied.
One compares further the variation in optical density per minute of the test (in the presence of the molecule to be studied) to that of the controls (without molecule). The influence of the molecule on tyrosinase activity will be deduced. The results are then expressed as a percentage of activity knowing that the controls show 100% activity.
Appearance of Dopachrome at 475 nm is followed for 3 minutes.

SMILES | % of inhibition (tested concentration 1 mg/ml) [%] | % of activity (tested concentration 1 mg/ml) [%] | % of inhibition (tested concentration 10 mg/ml) [%] | % of activity (tested concentration 10 mg/ml) [%] | % of inhibition (tested concentration 4 mg/ml) [%] | % of activity (tested concentration 4 mg/ml) [%] | % of inhibition (tested concentration 8 mg/ml) [%] | % of activity (tested concentration 8 mg/ml) [%] | % of inhibition (tested concentration 16 mg/ml) [%] | % of activity (tested concentration 16 mg/ml) [%]
O=c1cc(CO)occ1O [Kojic acid] | 71 | 29 | 80 | 20 | – | – | – | – | – | –
Oc1ccc(O)cc1 [Hydroquinone] | – | – | – | – | 0 | 241.9 | 0 | 229.41 | 0 | 112.53
CCCCCCCCCCCCCCCC(=O)OC[C@H](O)[C@H]1OC(=O)C(O)=C1O [Ascorbyl Palmitate] | 66 | 34 | – | – | – | – | – | – | – | –
